This is an account of results in patent US20260199323A1, “LIGAND COMPOUNDS FOR E3 UBIQUITIN LIGASE, PROTEIN DEGRADERS DEVELOPED ON BASIS OF LIGAND COMPOUNDS, AND USES THEREOF” (GLUETACS THERAPEUTICS (SHANGHAI) CO., LTD., priority 2021, published 2026).

One experiment concerns LNcap. Briefly: CCK-8 tumor cell proliferation, LNcap. Format: cell-based, Human. Particulars: Homo sapiens; Table 19, IRAK4 inhibitor based; Lncap; read-out: IC50 inhibiting proliferation of tumor cells, Lncap. The protocol:
(§1) The tumor cells used herein were cultured in a cell culture medium listed in table 4 at 37° C. in an incubator with 5% CO2. Prior to experimentation, all cells used were correctly identified by STR profiling, and tested negative for mycoplasma through routine screenings.
(§2) IC50 values of the compounds of the present disclosure (including the compounds in Tables 1 and 3, and compounds of examples) were measured using the Meilun Cell Counting Kit-8 kit from Dalian Meilun Biotech Co., Ltd. Assay details are as follows: tumor cells were seeded in a 96-well plate at a density listed in Table 5. After 24 h, 100 μL of the inoculated cells were treated with 0.5 μL of the compounds of the present disclosure (including the compounds in Tables 1 and 3, and compounds of examples) at 10 different successively decreasing concentrations (starting at the highest concentration of 10 μM; 5-fold serial dilutions). After the cells were treated with the compounds of the present disclosure for a period of time, the cell viability detection reagent was added to the culture medium for cell viability assessment according to the instructions provided with the CCK-8 kit. […] The growth inhibition of the compounds of the present disclosure on cells was plotted by Prism Graphpad software, and the IC50 values of the compounds of the present disclosure were calculated therefrom.

For a further experiment, the system named is CCRF-CEM. The experiment is described as follows: CCK-8 tumor cell proliferation, CCRF-CEM. Format: cell-based, Human. The arrangement: IC50 for inhibiting the proliferation of tumor cells, CCRF-CEM: scale not given here. Particulars: for IC50: Homo sapiens, CCRF-CEM, read-out: IC50 inhibiting proliferation of tumor cells, CCRF-CEM. In a few lines: (§3)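 STR-authenticated, mycoplasma-negative cells were cultured at 37 °C with 5% CO2. One day after plating, they were treated with a 5-fold serial dilution of compound (10 points, highest 10 μM). CCK-8 was used to assess viability, giving IC50 values.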

For a further experiment, the system named is Jurkat. Briefly: CCK-8 tumor cell proliferation, Jurkat. Format: cell-based, Human. Particulars: Homo sapiens, Table 19, IRAK4 inhibitor based, read-out: IC50 inhibiting proliferation of tumor cells, Jurkat. In a few lines: as §3
The next experiment has as its system NCI-H1975. The experiment is described as follows: CCK-8 tumor cell proliferation, NCI-H1975. Format: cell-based, Human. The note with it: for IC50 for inhibiting the proliferation of tumor cells, H1975: Table 11, designed based on EGFR inhibitors; for IC50: Homo sapiens, Table 15, ALK inhibitor based, NCI-H1975, read-out: IC50 inhibiting proliferation of tumor cells, NCI-H1975. On the procedure: as §1, §2

For a further experiment, the system named is Vcap. The experiment is described as follows: CCK-8 tumor cell proliferation, Vcap. Format: cell-based, Human. The protocol: as §1, §2
For a further experiment, the system named is CAL-62. Briefly: CCK-8 tumor cell proliferation, CAL-62. Format: cell-based, Human. The arrangement: IC50 for inhibiting the proliferation of tumor cells, CAL-62: scale not given here. The note with it: Table 11, designed based on EGFR inhibitors; 72 h. In a few lines: as §3
A further experiment concerns MDA-MB-231. The experiment is described as follows: CCK-8 tumor cell proliferation, MDA-MB-231. Format: cell-based, Human. Particulars: Homo sapiens, MDA-MB-231, read-out: IC50 inhibiting proliferation of tumor cells, MDA-MB-231. In a few lines: as §3
The subject of a further experiment is SR. Briefly: CCK-8 tumor cell proliferation, SR. Format: cell-based, Human. Particulars: Homo sapiens; Table 15, ALK inhibitor based; SR; read-out: IC50 inhibiting proliferation of tumor cells, SR. In a few lines:
as §3

In another experiment the test system is PC-9. Briefly: CCK-8 tumor cell proliferation, PC-9. Format: cell-based, Human. Particulars: Homo sapiens, PC-9, read-out: IC50 inhibiting proliferation of tumor cells, PC-9.
The test system of a further experiment is Mino. Briefly: CCK-8 tumor cell proliferation, Mino. Format: cell-based, Human. Particulars: Homo sapiens; Table 18, FAK inhibitor based; Mino; read-out: IC50 inhibiting proliferation of tumor cells, Mino. In a few lines:
as §3

A further experiment deals with MM.1S. The experiment is described as follows: CCK-8 tumor cell proliferation, MM.1S. Format: cell-based. Particulars: Homo sapiens, MM1.S; Table 18, FAK inhibitor based; MM.1S; read-out: IC50 inhibiting proliferation of tumor cells, MM.1S. The protocol:
as §1, §2

Another experiment concerns SW620. The experiment is described as follows: CCK-8 tumor cell proliferation, SW620. Format: cell-based, Human. The note with it: Homo sapiens, SW-620; Table 18, FAK inhibitor based; SW620; read-out: IC50 inhibiting proliferation of tumor cells, SW620. In a few lines: as §3
Setting [1] is: Table 7, designed based on BTK inhibitors, 96 h.

Like-named read-outs stand apart in the source and are kept apart here.

In the case of `CC(C)(O)c1cc2nc(C3CCN(Cc4cc5c(cc4F)C(=O)N(C4CCC(=O)NC4=O)C5)CC3)sc2cc1NC(=O)c1cccc(C(F)(F)F)n1` (stereo not drawn) [GT-04506, N-(2-(1-((2-(2,6-dioxopiperidin-3-yl)-6-fluoro-1-oxoisoindolin-5-yl)methyl)piperidin-4-yl)-5-(2-hydroxypropan-2-yl)benzo[d]thiazol-6-yl)-6-(trifluoromethyl)picolinamide], the IC50 in the experiment with LNcap was in the range of 100 to 500 nM; in the experiment with CCRF-CEM (Table 19, IRAK4 inhibitor based) it was 100 to 500 nM; with Jurkat, 50 to 100 nM.
`O=C1CCC(N2Cc3cc(CN4CCN(c5ccc(-c6ccc7c(c6)C(=O)N(C(C(=O)Nc6nccs6)c6cc(F)ccc6O)C7)cc5)CC4)ccc3C2=O)C(=O)N1` (stereo not drawn) [GT-03503, 2-(6-(4-(4-((2-(2,6-dioxopiperidin-3-yl)-1-oxoisoindolin-5-yl)methyl)piperazin-1-yl)phenyl)-1-oxoisoindolin-2-yl)-2-(5-fluoro-2-hydroxyphenyl)-N-(thiazol-2-yl)acetamide]: the “IC50 for inhibiting the proliferation of tumor cells, H1975” value in the experiment with NCI-H1975 (96 h) is “A+”.
Turning to `Nc1ncnc2c1c(-c1ccc(Oc3ccccc3)cc1)nn2C1CCN(Cc2cc(F)c3c(c2)CN(C2CCC(=O)NC2=O)C3=O)CC1` (stereo not drawn) [GT-03473, 3-(5-((4-(4-amino-3-(4-phenoxyphenyl)-1H-pyrazolo[3,4-d]pyrimidin-1-yl)piperidin-1-yl)methyl)-7-fluoro-1-oxoisoindolin-2-yl)piperidine-2,6-dione], the “IC50 for inhibiting the proliferation of tumor cells, CCRF-CEM” value with CCRF-CEM (setting [1]) was “A+”. Further, the “IC50 for inhibiting the proliferation of tumor cells, NCI-H1975” value in the experiment with NCI-H1975 (setting [1]) is on record as “A+”. Also, the “IC50 for inhibiting the proliferation of tumor cells, Vcap” value in the experiment with Vcap (setting [1]) is on record as “A+”.
In the case of `CN(Cc1ccc2c(c1F)CN(C1CCC(=O)NC1=O)C2=O)C1CCN(c2ccc(Nc3ncc4nc(Nc5ccccc5)n(C5CCCC5)c4n3)cc2)CC1` (stereo not drawn) [GT-03858, 3-(5-(((1-(4-((9-cyclopentyl-8-(phenylamino)-9H-purin-2-yl)amino)phenyl)piperidin-4-yl)(methyl)amino)methyl)-4-fluoro-1-oxoisoindolin-2-yl)piperidine-2,6-dione], the “IC50 for inhibiting the proliferation of tumor cells, H1975” value in the experiment on NCI-H1975 (96 h) was “A+”.
For `COc1cc(N2CCC(N(C)Cc3ccc4c(c3F)CN(C3CCC(=O)NC3=O)C4=O)CC2)c(C)cc1Nc1ncc(Br)c(Nc2ccc3nccnc3c2P(C)(C)=O)n1` (stereo not drawn) [GT-03925, 3-(5-(((1-(4-((5-bromo-4-((5-(dimethylphosphoryl)quinoxalin-6-yl)amino)pyrimidin-2-yl)amino)-5-methoxy-2-methylphenyl)piperidin-4-yl)(methyl)amino)methyl)-4-fluoro-1-oxoisoindolin-2-yl)piperidine-2,6-dione], the “IC50 for inhibiting the proliferation of tumor cells, CAL-62” value with CAL-62 is listed as “A+”. For the same molecule, the “IC50 for inhibiting the proliferation of tumor cells, H1975” value with NCI-H1975 (96 h) is on record as “A+”.
As for `C[C@@H](Oc1cc(-c2cnn(C3CCN(Cc4ccc5c(c4)CN(C4CCC(=O)NC4=O)C5=O)CC3)c2)cnc1N)c1c(Cl)ccc(F)c1Cl` (stereo partly drawn) [GT-02974, 3-(5-((4-(4-(6-amino-5-((R)-1-(2,6-dichloro-3-fluorophenyl)ethoxy)pyridin-3-yl)-1H-pyrazol-1-yl)piperidin-1-yl)methyl)-1-oxoisoindolin-2-yl)piperidine-2,6-dione], the IC50 in the experiment on MDA-MB-231 (Table 15, ALK inhibitor based) was 1000 to 5000 nM; in the experiment with SR, 50 to 100 nM; with NCI-H1975 it was 1000 to 5000 nM; in the experiment with PC-9 (Table 15, ALK inhibitor based), 1000 to 5000 nM.
`COc1cc(N2CCC(N(C)Cc3cc4c(cc3F)C(=O)N(C3CCC(=O)NC3=O)C4)CC2)c(C)cc1Nc1ncc(Br)c(Nc2ccc3nccnc3c2P(C)(C)=O)n1` (stereo not drawn) [GT-03926, 3-(5-(((1-(4-((5-bromo-4-((5-(dimethylphosphoryl)quinoxalin-6-yl)amino)pyrimidin-2-yl)amino)-5-methoxy-2-methylphenyl)piperidin-4-yl)(methyl)amino)methyl)-6-fluoro-1-oxoisoindolin-2-yl)piperidine-2,6-dione]: the “IC50 for inhibiting the proliferation of tumor cells, H1975” value in the experiment with NCI-H1975 (96 h) is “A+”.
With `COc1cc(N2CCC(N(C)Cc3ccc4c(c3)CN(C3CCC(=O)NC3=O)C4=O)CC2)c(C)cc1Nc1ncc(Br)c(Nc2ccc3nccnc3c2P(C)(C)=O)n1` (stereo not drawn) [GT-03924, 3-(5-(((1-(4-((5-bromo-4-((5-(dimethylphosphoryl)quinoxalin-6-yl)amino)pyrimidin-2-yl)amino)-5-methoxy-2-methylphenyl)piperidin-4-yl)(methyl)amino)methyl)-1-oxoisoindolin-2-yl)piperidine-2,6-dione], the “IC50 for inhibiting the proliferation of tumor cells, CAL-62” value in the experiment with CAL-62 was “A+”. For the same molecule, the “IC50 for inhibiting the proliferation of tumor cells, H1975” value in the experiment with NCI-H1975 (96 h) is listed as “A+”.
`CNC(=O)c1ccccc1Nc1cc(Nc2ccc(N3CCN(Cc4cc5c(cc4F)C(=O)N(C4CCC(=O)NC4=O)C5)CC3)cc2OC)ncc1C(F)(F)F` (stereo not drawn) [GT-03716, 2-((2-((4-(4-((2-(2,6-dioxopiperidin-3-yl)-6-fluoro-1-oxoisoindolin-5-yl)methyl)piperazin-1-yl)-2-methoxyphenyl)amino)-5-(trifluoromethyl)pyridin-4-yl)amino)-N-methylbenzamide]: the IC50 with MDA-MB-231 (Table 18, FAK inhibitor based) is < 50 nM; in the experiment on Mino, < 50 nM; in the experiment on CCRF-CEM (Table 18, FAK inhibitor based), < 50 nM; in the experiment with MM.1S, < 50 nM; in the experiment on SW620, < 50 nM; with Vcap (Homo sapiens, VCaP, Table 18, FAK inhibitor based, Vcap, read-out: IC50 inhibiting proliferation of tumor cells, Vcap), < 50 nM. The IC50 in the experiment with PC-9 (Table 18, FAK inhibitor based) was 1000 to 5000 nM.
For the molecule `Cc1cc(Nc2ncc(Cl)c(Nc3ccccc3S(=O)(=O)C(C)C)n2)c(OC(C)C)cc1N1CCC(N(C)Cc2ccc3c(c2)CN(C2CCC(=O)NC2=O)C3=O)CC1` (stereo not drawn) [GT-03530, 3-(5-(((1-(4-((5-chloro-4-((2-(isopropylsulfonyl)phenyl)amino)pyrimidin-2-yl)amino)-5-isopropoxy-2-methylphenyl)piperidin-4-yl)(methyl)amino)methyl)-1-oxoisoindolin-2-yl)piperidine-2,6-dione], the IC50 with MDA-MB-231 (Table 15, ALK inhibitor based) was 500 to 1000 nM; in the experiment with SR, < 50 nM; in the experiment on NCI-H1975 it was 1000 to 5000 nM; in the experiment on PC-9 (Table 15, ALK inhibitor based) it was 500 to 1000 nM.
Regarding `COc1cc(N2CCC(N(C)Cc3cc(F)c4c(c3)CN(C3CCC(=O)NC3=O)C4=O)CC2)c(C)cc1Nc1ncc(Br)c(Nc2ccc3nccnc3c2P(C)(C)=O)n1` (stereo not drawn) [GT-03927, 3-(5-(((1-(4-((5-bromo-4-((5-(dimethylphosphoryl)quinoxalin-6-yl)amino)pyrimidin-2-yl)amino)-5-methoxy-2-methylphenyl)piperidin-4-yl)(methyl)amino)methyl)-7-fluoro-1-oxoisoindolin-2-yl)piperidine-2,6-dione], in the experiment on CAL-62, the “IC50 for inhibiting the proliferation of tumor cells, CAL-62” value is reported as “A+”. Also, the “IC50 for inhibiting the proliferation of tumor cells, H1975” value with NCI-H1975 (96 h) is “A+”.
